In US7253187B2, “Heterocyclic inhibitors of ERK2 and uses thereof” (Vertex Pharmaceuticals Incorporated, priority 2001, dated 2007):

Key:
[1] = molecular target: T1, Aurora-2 (Homo sapiens, UniProt O14965); experiment: Aurora-2 inhibition assay (coupled enzyme assay); type: biochemical
T1 sequence (O14965 1-403): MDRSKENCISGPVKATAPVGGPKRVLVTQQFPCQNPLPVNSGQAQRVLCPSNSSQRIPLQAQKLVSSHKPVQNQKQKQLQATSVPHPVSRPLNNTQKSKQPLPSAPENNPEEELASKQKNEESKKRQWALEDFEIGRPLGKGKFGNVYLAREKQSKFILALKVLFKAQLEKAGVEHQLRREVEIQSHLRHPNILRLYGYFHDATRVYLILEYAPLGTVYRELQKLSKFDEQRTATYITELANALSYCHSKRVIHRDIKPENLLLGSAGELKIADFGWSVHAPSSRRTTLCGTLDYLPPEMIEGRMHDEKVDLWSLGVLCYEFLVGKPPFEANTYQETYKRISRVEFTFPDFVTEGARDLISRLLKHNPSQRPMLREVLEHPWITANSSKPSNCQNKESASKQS
Description: Compounds were screened in the following manner for their ability to inhibit Aurora-2 using a standard coupled enzyme assay (Fox et al (1998) Protein Sci 7, 2249).
To an assay stock buffer solution containing 0.1M HEPES 7.5, 10 mM MgCl2, 1 mM DTT, 25 mM NaCl, 2.5 mM phosphoenolpyruvate, […], 30 mg/ml pyruvate kinase, 10 mg/ml lactate dehydrogenase, […], and 800 μM peptide (LRRASLG, American Peptide, Sunnyvale, Calif.) was added a DMSO solution of a compound of the present invention to a final concentration of 30 μM. The resulting mixture was incubated at 30° C. for 10 min. The reaction was initiated by the addition of 10 μL of Aurora-2 stock solution to give a final concentration of 70 nM in the assay. The rates of reaction were obtained by monitoring absorbance at 340 nm over a 5 minute read time at 30° C. using a BioRad Ultramark plate reader (Hercules, Calif.). The Ki values were determined from the rate data as a function of inhibitor concentration.

[2] = molecular target: T2, GSK-3β (AA 1–420) (Homo sapiens, UniProt P49841); experiment: GSK-3 inhibition assay (coupled enzyme system); type: biochemical; settings: read-out: GSK3 Inhibitory Activity (Ki class)
T2 construct: GSK-3β (AA 1–420)
T2 sequence (P49841 whole entry, species assumed, the tested form may be a part): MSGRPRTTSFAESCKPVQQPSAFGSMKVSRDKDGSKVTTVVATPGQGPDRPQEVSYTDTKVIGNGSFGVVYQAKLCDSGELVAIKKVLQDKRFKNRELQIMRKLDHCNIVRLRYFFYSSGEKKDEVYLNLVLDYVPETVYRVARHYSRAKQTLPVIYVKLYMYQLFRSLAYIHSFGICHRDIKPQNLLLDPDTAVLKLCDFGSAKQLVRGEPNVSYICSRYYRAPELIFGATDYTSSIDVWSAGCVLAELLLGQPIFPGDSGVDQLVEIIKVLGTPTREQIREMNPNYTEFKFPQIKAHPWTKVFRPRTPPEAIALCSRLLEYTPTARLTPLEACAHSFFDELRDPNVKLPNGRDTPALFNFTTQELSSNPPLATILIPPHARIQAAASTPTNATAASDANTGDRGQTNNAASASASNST
Procedure, shortened: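 ADP production read via pyruvate kinase/lactate dehydrogenase–coupled NADH consumption over 10 min at 30 °C. Ki derived from rates versus inhibitor concentration.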

[3] = molecular target: CDK-2/Cyclin A (Homo sapiens, UniProt P24941); experiment: CDK-2 inhibition assay (coupled enzyme assay); type: biochemical
Description: To an assay stock buffer solution containing 0.1M HEPES 7.5, 10 mM MgCl2, 1 mM DTT, 25 mM NaCl, 2.5 mM phosphoenolpyruvate, […], […], […], […], and 100 μM peptide ([…], American Peptide, Sunnyvale, Calif.) was added a DMSO solution of a compound of the present invention to a final concentration of 30 μM.
The Ki values were determined from the rate data as a function of inhibitor concentration.

[4] = molecular target: ERK2 (Homo sapiens, UniProt P28482); experiment: ERK2 inhibition assay (spectrophotometric coupled-enzyme assay); type: biochemical; settings: read-out: ERK2 Inhibitory Activity (Ki class D-F)
Chain of ERK2 (P28482 whole entry): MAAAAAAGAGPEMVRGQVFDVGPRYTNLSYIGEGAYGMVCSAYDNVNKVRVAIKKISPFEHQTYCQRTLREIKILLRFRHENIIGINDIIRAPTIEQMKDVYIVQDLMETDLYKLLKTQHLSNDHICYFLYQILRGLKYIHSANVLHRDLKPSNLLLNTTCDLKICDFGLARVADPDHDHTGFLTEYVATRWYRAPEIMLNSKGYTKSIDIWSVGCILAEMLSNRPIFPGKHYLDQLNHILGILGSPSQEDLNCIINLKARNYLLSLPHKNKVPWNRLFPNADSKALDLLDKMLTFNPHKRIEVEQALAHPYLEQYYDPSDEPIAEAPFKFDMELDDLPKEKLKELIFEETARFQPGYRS
Description: The IC50 was evaluated from the rate data as a function of inhibitor concentration. […] The compound numbers correspond to the compound numbers in Table 1.

[5] = test system: Colon cancer cells (HT-29 cell line); experiment: ERK2 inhibition: cell proliferation assay (3H-thymidine uptake); type: cell-based; settings: Homo sapiens, 3 days
Description: Compounds may be assayed for the inhibition of ERK2 by a cell proliferation assay. […] Colon cancer cells (HT-29 cell line) are added to each of 84-wells of a 96 well plate at a seeding density of 10,000 cells/well/150 μL. The cells are allowed to attach to the plate by incubating at 37° C. for 2 hours. […] The test compound solution (50 μL) is added to each of 72 cell-containing wells. To the 12 remaining cell-containing wells, only complete media (200 μL) is added to form a control group in order to measure maximal proliferation. To the remaining 12 empty wells, complete media is added to form a vehicle control group in order to measure background. The plates are incubated at 37° C. for 3 days. A stock solution of ^3H-thymidine (1 mCi/mL, New England Nuclear, Boston, Mass.) is diluted to 20 μCi/mL in RPMI medium then 20 μL of this solution is added to each well. The plates are further incubated at 37° C. for 8 hours then harvested and analyzed for ^3H-thymidine uptake using a liquid scintillation counter.

[6] = molecular target: ERK1 (Homo sapiens, UniProt P27361); experiment: ERK1 inhibition assay (spectrophotometric coupled-enzyme assay); type: biochemical; settings: read-out: inhibit ERK1 with an activity (Ki)
Chain of ERK1 (P27361 whole entry, species assumed): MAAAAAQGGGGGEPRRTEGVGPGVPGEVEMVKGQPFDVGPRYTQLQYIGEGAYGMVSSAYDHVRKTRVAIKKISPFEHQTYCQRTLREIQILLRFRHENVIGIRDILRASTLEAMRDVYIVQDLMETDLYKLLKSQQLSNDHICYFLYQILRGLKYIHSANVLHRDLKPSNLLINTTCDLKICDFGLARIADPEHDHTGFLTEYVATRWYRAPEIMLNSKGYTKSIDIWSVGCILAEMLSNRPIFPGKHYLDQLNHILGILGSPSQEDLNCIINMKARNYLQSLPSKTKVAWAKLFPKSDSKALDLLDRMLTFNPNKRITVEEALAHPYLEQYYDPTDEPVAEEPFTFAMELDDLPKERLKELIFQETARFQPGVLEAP
Description: Compounds were assayed for the inhibition of ERK1 by a spectrophotometric coupled-enzyme assay (Fox et al (1998) Protein Sci 7, 2249). In this assay, a fixed concentration of activated ERK1 (20 nM) was incubated with various concentrations of the compound in DMSO (2.0%) for 10 min. at 30° C. in 0.1 M HEPES buffer, pH 7.6, containing 10 mM MgCl2, 2.5 mM-phosphoenolpyruvate, 200 μM NADH, 30 μg/mL pyruvate kinase, 10 μg/mL lactate dehydrogenase, and 150 μM erktide peptide. The reaction was initiated by the addition of 140 μM ATP (20 μL). The rate of decrease of absorbance at 340 nm was monitored. The Ki was evaluated from the rate data as a function of inhibitor concentration.

Compound	found to inhibit Aurora-2 [1]	Ki [2] [nM]	Ki [3] [nM]	Ki [4] [nM]	IC50 [5] [nM]	Ki [6] [nM]
CCNc1ncc(C)c(-c2c[nH]c(C(=O)N[C@H](CO)c3ccccc3)c2)n1 [III-a-117, 4-(2-Ethylamino-5-methyl-pyrimidin-4-yl)-1H-pyrrole-2-carboxylic acid (2-hydroxy-1-phenyl-ethyl)-amide]	found to inhibit Aurora-2	< 100	1000 to 20000	< 100	–	–
Cc1cnc(Nc2cccc(OCc3ccccc3)c2)nc1-c1c[nH]c(C(=O)NC(CO)c2ccccc2)c1 (stereo not shown) [III-a-141, 4-[2-(3-Benzyloxy-phenylamino)-5-methyl-pyrimidin-4-yl]-1H-pyrrole-2-carboxylic acid (2-hydroxy-1-phenyl-ethyl)-amide]	found to inhibit Aurora-2	< 100	–	< 100	–	–
Cc1cnc(NCc2ccccc2)nc1-c1c[nH]c(C(=O)NC(CO)c2ccccc2)c1 (stereo not shown) [III-a-150, 4-(2-Benzylamino-5-methyl-pyrimidin-4-yl)-1H-pyrrole-2-carboxylic acid (2-hydroxy-1-phenyl-ethyl)-amide]	–	100 to 1000	100 to 1000	< 100	–	–
Cc1cnc(Nc2ccc(OCc3ccccc3)cc2)nc1-c1c[nH]c(C(=O)NC(CO)c2ccccc2)c1 (stereo not shown) [III-a-152, 4-[2-(4-Benzyloxy-phenylamino)-5-methyl-pyrimidin-4-yl]-1H-pyrrole-2-carboxylic acid (2-hydroxy-1-phenyl-ethyl)-amide]	–	< 100	< 100	< 100	–	–
Cc1cnc(N[C@H](CO)c2ccccc2)nc1-c1c[nH]c(C(=O)N[C@H](CO)c2ccccc2)c1 [III-a-155, 4-[2-(2-Hydroxy-1-(S)-phenyl-ethylamino)-5-methyl-pyrimidin-4-yl]-1H-pyrrole-2-carboxylic acid (2-hydroxy-1-(S)-phenyl-ethyl)-amide]	–	100 to 1000	100 to 1000	< 100	–	–
Cc1cnc(NCC2CC2)nc1-c1c[nH]c(C(=O)NC(CO)c2ccccc2)c1 (stereo not shown) [III-a-159, 4-[2-(Cyclopropylmethyl-amino)-5-methyl-pyrimidin-4-yl]-1H-pyrrole-2-carboxylic acid (2-hydroxy-1-phenyl-ethyl)-amide]	–	< 100	1000 to 20000	< 100	–	–
Cc1cnc(NC2(CO)CC2)nc1-c1c[nH]c(C(=O)NC(CO)c2ccccc2)c1 (stereo not shown) [III-a-174, 4-[2-(1-Hydroxymethyl-cyclopropylamino)-5-methyl-pyrimidin-4-yl]-1H-pyrrole-2-carboxylic acid (2-hydroxy-1-phenyl-ethyl)-amide]	–	< 100	100 to 1000	< 100	–	–
Cc1cnc(NC2CC2)nc1-c1c[nH]c(C(=O)NC(CO)c2cccc(C(F)(F)F)c2)c1 (stereo not shown) [III-a-202, 4-(2-Cyclopropylamino-5-methyl-pyrimidin-4-yl)-1H-pyrrole-2-carboxylic acid [2-hydroxy-1-(3-trifluoromethyl-phenyl)-ethyl]-amide]	–	> 1000	–	< 100	–	< 100
Cc1cnc(NC2CC2)nc1-c1c[nH]c(C(=O)NC(CO)c2cccc(Cl)c2)c1 (stereo not shown) [III-a-204, 4-(2-Cyclopropylamino-5-methyl-pyrimidin-4-yl)-1H-pyrrole-2-carboxylic acid [1-(3-chloro-phenyl)-2-hydroxy-ethyl]-amide]	–	–	–	< 100	–	< 100
Cc1cccc(C(CO)NC(=O)c2cc(-c3nc(NC4CC4)ncc3C)c[nH]2)c1 (stereo not shown) [III-a-205, 4–1(2-Cyclopropylamino-5-methyl-pyrimidin-4-yl)-1H-pyrrole-2-carboxylic acid (2-hydroxy-1-m-tolyl-ethyl)-amide]	–	100 to 1000	–	< 100	–	< 100

Continued, values first:

found to inhibit Aurora-2 [1]	Ki [2] [nM]	Ki [3] [nM]	Ki [4] [nM]	IC50 [5] [nM]	Ki [6] [nM]	Compound
found to inhibit Aurora-2	–	–	–	–	–	Cc1cnc(Nc2ccccc2)nc1-c1c[nH]c(C(=O)NC(CO)c2ccccc2)c1 (stereo not shown) [III-a-116, 4-(5-Methyl-2-phenylamino-pyrimidin-4-yl)-1H-pyrrole-2-carboxylic acid (2-hydroxy-1-phenyl-ethyl)-amide]
found to inhibit Aurora-2	< 100	–	–	< 100	–	Cc1cnc(Nc2cccc(F)c2)nc1-c1c[nH]c(C(=O)NC(CO)c2ccccc2)c1 (stereo not shown) [III-a-136, 4-[2-(3-Fluoro-phenylamino)-5-methyl-pyrimidin-4-yl]-1H-pyrrole-2-carboxylic acid (2-hydroxy-1-phenyl-ethyl)-amide]
found to inhibit Aurora-2	< 100	–	–	–	–	Cc1cnc(Nc2cccc(O)c2)nc1-c1c[nH]c(C(=O)NC(CO)c2ccccc2)c1 (stereo not shown) [III-a-138, 4-[2-(3-Hydroxy-phenylamino)-5-methyl-pyrimidin-4-yl]-1H-pyrrole-2-carboxylic acid (2-hydroxy-1-phenyl-ethyl)-amide]
found to inhibit Aurora-2	< 100	–	< 100	< 100	–	Cc1cnc(Nc2ccc3c(c2)OCO3)nc1-c1c[nH]c(C(=O)NC(CO)c2ccccc2)c1 (stereo not shown) [III-a-139, 4-[2-(Benzo[1,3]dioxol-5-ylamino)-5-methyl-pyrimidin-4-yl]-1H-pyrrole-2-carboxylic acid (2-hydroxy-1-phenyl-ethyl)-amide]
found to inhibit Aurora-2	< 100	–	< 100	–	–	Cc1cnc(Nc2ccc(S(N)(=O)=O)cc2)nc1-c1c[nH]c(C(=O)NC(CO)c2ccccc2)c1 (stereo not shown) [III-a-140, 4-[5-Methyl-2-(4-sulfamoyl-phenylamino)-pyrimidin-4-yl]-1H-pyrrole-2-carboxylic acid (2-hydroxy-1-phenyl-ethyl)-amide]
–	< 100	100 to 1000	< 100	–	–	Cc1cnc(Nc2cccc(F)c2)nc1-c1c[nH]c(C(=O)NC(CO)c2cccc(C(F)(F)F)c2)c1 (stereo not shown) [III-a-148, 4-[2-(3-Fluoro-phenylamino)-5-methyl-pyrimidin-4-yl]-1H-pyrrole-2-carboxylic acid [2-hydroxy-1-(3-trifluoromethyl-phenyl)-ethyl]-amide]
–	< 100	< 100	< 100	–	–	Cc1cnc(Nc2cccc(C(F)(F)F)c2)nc1-c1c[nH]c(C(=O)NC(CO)c2ccccc2)c1 (stereo not shown) [III-a-149, 4-[5-Methyl-2-(3-trifluoromethyl-phenylamino)-pyrimidin-4-yl]-1H-pyrrole-2-carboxylic acid (2-hydroxy-1-phenyl-ethyl)-amide]
–	< 100	100 to 1000	< 100	–	–	Cc1cnc(NC2CC2)nc1-c1c[nH]c(C(=O)N[C@H](CO)c2ccccc2)c1 [III-a-162, 4-(2-Cyclopropylamino-5-methyl-pyrimidin-4-yl)-1H-pyrrole-2-carboxylic acid (2-hydroxy-1-(S)-phenyl-ethyl)-amide]
